According to patent publication US10464907B2, “Compound having HSP90 inhibitory activity or pharmaceutically acceptable salt thereof, and medical use thereof” (priority 2016, dated 2019):
Read-outs that look alike come from different tables or passages of the source.

What was measured:
H1975 = test: MTS cell proliferation / survival assay; assay type: cell-based; settings: Homo sapiens; for inhibition at 10 µM: NCI-H1975, read-out: Inhibition rate at 10 μM (%); for inhibition at 30 µM: NCI-H1975, read-out: Inhibition rate at 30 μM (%)
Method: Sk-Br3 (Korean cell line bank), a breast cancer cell, and H1975 cell (ATCC), a nonsmall cell lung cancer, were cultured in RPMI 1640 containing 25 mM HEPES (4-(2-hydroxyethyl)-1-piperazineethanesulfonic acid) and RPMI 1640 containing L-glutamine (containing streptomycin ([…]), penicillin (100 units/mL) and 10% fetal bovine serum (FBS)).
The cells were cultured under a humidified atmosphere of 37° C. and 5% CO2.
Next, non-metastatic lung cancer cells were treated with Compound 17 and the cell proliferation rate or cell survival rate was measured by MTS [3-(4,5-dimethylthiazol-2-yl)-5-(3-carboxymethoxyphenyl)-2-2H-tetrazolium, inner salt] analysis.
Cells were dispensed in 96-well plates at 3000 cell/well (Sk-Br3) and 2000 cell/well (H1975), and 100 μL of the medium was added per well and then was incubated overnight.
Cell proliferation was evaluated using the Promega Cell Titer 96 Aqueous One Solution cell proliferation assay.
After compound and cell culture, 20 μL of assay substrate solution was added to each well and incubated at 37° C. for an additional 1 hour.
Cell proliferation was confirmed by measuring the absorbance at 490 nm using a microplate reader (Tecan Infinite F200 Proplate reader).

LogP = assay type: physicochemical; settings: called measured values of LogP
Method: All experimental data were analyzed using Prism software (version 5.0, Graphpad Software, San Diego, Calif.). In addition, tPSA (Topological Polar Surface Area) calculated using Chemdraw software and the measured values of LogP are shown in Tables 1 and 2 below.

HSP90α = HSP90α (Homo sapiens (Human), UniProt P07900); test: Fluorescence polarization assay, binding ability to HSP90, benzamide compounds; settings: GA-FITC 100 nM; read-out: HSP90 FP) (IC50; nM)
Method: 1 M dithiothreitol (DTT), 10 mg/m: BGG (bovine gamma globulin) were added to hexafluorobenzene (HFB) buffer (20 mM HEPES pH 7.3, 50 mM KCl, 5 mM MgCl2, 20 mM Na2MoO4, 0.01% NP4O, 3rd distilled water) and mixed. Then, 100 nM […] (GA)-FITC (Fluorescein isothiocyanate) was added and reacted at room temperature for 10 minutes. Each 100 μL of the mixture was dispensed into the control wells of a 96-well plate, 2 μL of HSP90α was added to the remaining mixture, and each 100 μL of the other wells was dispensed. […] The binding ability of the compound to HSP90 was expressed as mP (millipolarization unit=1000 mP unit).

H1975 cells = test: MTS cell viability in H1975 cells resistant to Gefitinib; assay type: cell-based; settings: read-out: H1975 (EC50; μM)
Method: To confirm the cell viability according to the concentration of the compound synthesized in H1975 cells (ATCC) resistant to Gefitinib, MTS [3-(4,5-dimethylthiazol-2-yl)-5-[…]carboxymethoxyphenyl)-2-(4-sulfophenyl)-2H-tetrazolium, inner salt] analysis was performed. When the cells were cultured so as to occupy 80% of the bottom of the culture dish, the cells were detached and diluted with RPMI 1640 medium to a concentration of 1.5×10^3 cells/well. Each 100 μL of the suspension was added to each well of a 96-well plate and cultured for 14 hours. Then, the medium was changed to the culture solution treated with compound of each concentration each concentration (1a-g: 0, 1, 5, 10, 30, 50 or 100 μM, 14a-I, 16a, b, 21a-f: 0, 0.01, 0.1, 1, 5, 10, 30, 50, 70 or 100 μM), and cultured for 3 days. Each 20 μL of the MTS solution was dispensed into each well and reacted for 1 hour at 37° C. in an incubator supplied with 5% CO2.

| SMILES | logP (LogP) | IC50 (HSP90α) [nM] | EC50 (H1975 cells; Homo sapiens, NCI-H1975, 72 h) [µM] | other results |
| --- | --- | --- | --- | --- |
| O=C(c1cc(Cl)c(O)cc1O)N1CCCCC1 [Compound 11b, (5-chloro-2,4-dihydroxyphenyl) (piperidin-1-yl)methanone] | 1.69 |  |  | inhibition at 10 µM (H1975): 7.6%; inhibition at 30 µM (H1975): 26.3% |
| CCCNC(=O)c1ccc(CN(C)C(=O)c2cc(Cl)c(O)cc2O)cc1 [Compound 21c, 5-chloro-2,4-dihydroxy-N-methyl-N-(4-(propylcarbamoyl)benzyl)benzamide] |  | 454 | 20.8 |  |
| CN(Cc1ccccc1)C(=O)c1cc(Cl)c(O)cc1O [Compound 14b, N-Benzyl-5-chloro-2,4-dihydroxy-N-methylbenzamide] |  | 413 | 35.5 |  |
| CC(=O)N1CCN(C(=O)c2cc(Cl)c(O)cc2O)CC1 [Compound 11f, 1-(4-(5-chloro-2,4-dihydroxybenzoyl)piperazin-1-yl)ethanone] | 0.25 |  |  | inhibition at 10 µM (H1975): 0%; inhibition at 30 µM (H1975): 10.5% |
| COc1cc(CN(C)C(=O)c2cc(Cl)c(O)cc2O)cc(OC)c1OC [Compound 14f, 5-chloro-2,4-dihydroxy-N-methyl-N-(3,4,5-trimethoxybenzyl) benzamide] |  | 1460 |  | EC50 (H1975 cells; H1975, 3 days): 73.1 µM |
| O=C1CCN(C(=O)c2cc(Cl)c(O)cc2O)CC1 [Compound 11i, 1-(5-chloro-2,4-dihydroxybenzoyl)piperidin-4-one] | 0.6 |  |  |  |
| CN1CCN(C(=O)c2cc(Cl)c(O)cc2O)C(c2ccccc2)C1 (centres unmarked) [Compound 11j, (5-chloro-2,4-dihydroxyphenyl)(4-methyl-2-phenylpiperazin-1-yl)methanone] | 3.22 |  |  |  |
| CNC(=O)c1ccc(CN(C)C(=O)c2cc(C(C)C)c(O)cc2O)cc1 [Compound 21d, 2,4-dihydroxy-5-isopropyl-N-methyl-N-(4-(methylcarbamoyl)benzyl) benzamide] |  | 11.4 |  | EC50 (H1975 cells; H1975, 3 days): 0.83 µM |
| COc1cc(CN(C)C(=O)c2cc(Cl)c(O)cc2O)c(Br)c(OC)c1OC [Compound 14h, N-(2-bromo-3,4,5-trimethoxybenzyl)-5-chloro-2,4-dihydroxy-N-methylbenzamide] |  | 528 | 34.3 |  |
| CN1CCN(C(=O)c2cc(Cl)c(O)cc2O)CC1 [Compound 11e, (5-chloro-2,4-dihydroxyphenyl)(4-methylpiperazin-1-yl)methanone] | 1.23 |  |  | inhibition at 10 µM (H1975): 26.3%; inhibition at 30 µM (H1975): 48.7% |
| O=C1CN(C(=O)c2cc(Cl)c(O)cc2O)CCN1 [Compound 11g, 4-(5-chloro-2,4-dihydroxybenzoyl)piperazin-2-one] | 0.45 |  |  | inhibition at 10 µM (H1975): 0%; inhibition at 30 µM (H1975): 0% |
| COc1ccc(CN(C)C(=O)c2cc(Cl)c(O)cc2O)cc1 [Compound 14c, 5-chloro-2,4-dihydroxy-N-(4-methoxybenzyl)-N-methylbenzamide] |  | 135 | 16.7 |  |
| CCNC(=O)c1ccc(CN(C)C(=O)c2cc(C(C)C)c(O)cc2O)cc1 [Compound 21e, N-(4-(ethylcarbamoyl)benzyl)-2,4-dihydroxy-5-isopropyl-N-methylbenzamide] |  | 6.5 | 0.46 |  |
| Cc1cccc(CN(C)C(=O)c2cc(Cl)c(O)cc2O)c1 [Compound 14i, 5-chloro-2,4-dihydroxy-N-methyl-N-(3-methylbenzyl)benzamide] |  |  | 47.5 |  |
| O=C(c1cc(Cl)c(O)cc1O)N1CCNCC1 [Compound 11d, (5-chloro-2,4-dihydroxyphenyl) (piperazin-1-yl)methanone] | 0.65 |  |  | inhibition at 10 µM (H1975): 0%; inhibition at 30 µM (H1975): 0% |
| CNC(=O)c1ccc(CN(C)C(=O)c2cc(Cl)c(O)cc2O)cc1 [Compound 21a, 5-chloro-2,4-dihydroxy-N-methyl-N-(4-(methylcarbamoyl)benzyl) benzamide] |  | 496 |  | EC50 (H1975 cells; H1975, 3 days): 34.8 µM |
| COc1ccc(CN(C)C(=O)c2cc(Cl)c(O)cc2O)cc1OC [Compound 14d, 5-chloro-N-(3,4-dimethoxybenzyl)-2,4-dihydroxy-N-methylbenzamide] |  | 362 | 33.4 |  |
| Cc1ccccc1CN(C)C(=O)c1cc(Cl)c(O)cc1O [Compound 16a, 5-chloro-2,4-dihydroxy-N-methyl-N-(2-methylbenzyl)benzamide] |  |  | 49.3 |  |
| COc1cc(CN(C)C(=O)c2cc(Cl)c(O)cc2O)c(Cl)c(OC)c1OC [Compound 14g, 5-chloro-N-(2-chloro-3,4,5-trimethoxybenzyl)-2,4-dihydroxy-N-methylbenzamide] |  | 429 | 33.8 |  |
| CC(C)c1cc(C(=O)N(C)Cc2ccccc2)c(O)cc1O [Compound 21g, N-benzyl-2,4-dihydroxy-5-isopropyl-N-methylbenzamide] |  |  | 4.1 |  |
| O=C1CCN(C(=O)c2cc(Cl)c(O)cc2O)C1 [Compound 11h, 1-(5-chloro-2,4-dihydroxybenzoyl) pyrrolidin-3-one] | 0.84 |  |  | inhibition at 10 µM (H1975): 0%; inhibition at 30 µM (H1975): 0% |
| CCNC(=O)c1ccc(CN(C)C(=O)c2cc(Cl)c(O)cc2O)cc1 [Compound 21b, 5-chloro-N-(4-(ethylcarbamoyl)benzyl)-2,4-dihydroxy-N-methylbenzamide] |  | 612 | 21.7 |  |
| Cc1ccc(CN(C)C(=O)c2cc(Cl)c(O)cc2O)cc1 [Compound 16b, 5-chloro-2,4-dihydroxy-N-methyl-N-(4-methylbenzyl)benzamide] |  | 558 | 34.3 |  |
| O=C(c1cc(Cl)c(O)cc1O)N1CCOCC1 [Compound 11c, (5-chloro-2,4-dihydroxyphenyl) (morpholino)methanone] | 0.66 |  |  | inhibition at 10 µM (H1975): 24.3%; inhibition at 30 µM (H1975): 44% |
| CN(Cc1ccc2c(c1)OCO2)C(=O)c1cc(Cl)c(O)cc1O [Compound 14e, N-(benzo[d][1,3]dioxol-5-ylmethyl)-5-chloro-2,4-dihydroxy-N-methylbenzamide] |  | 585 | 103 |  |
| O=C(NCc1ccccc1)c1cc(Cl)c(O)cc1O [Compound 14a, N-Benzyl-5-chloro-2,4-dihydroxybenzamide] |  |  | 86.2 |  |
| O=C(c1cc(Cl)c(O)cc1O)N1CCCC1 [Compound 11a, (5-chloro-2,4-dihydroxyphenyl) (pyrrolidin-1-yl)methanone] | 1.13 |  |  | inhibition at 10 µM (H1975): 8.1%; inhibition at 30 µM (H1975): 22.1% |
